In general, pEC50 refers to the negative decadic logarithm of the EC50, by convention in mol/L. The term pIC50 denotes the negative decadic logarithm of the IC50, by convention in mol/L. Usually CC50 stands for the concentration at which the toxic effect on the cells reaches its halfway point. A low value points to harm at low concentration.

Data on 25 compounds can be found in patent US20250084091A1, “INHIBITORS OF SARS-COV-2” (The Texas A&M University System, priority 2021, published 2025).

The subject of one data set is HeLa-ACE2 cells. In words: cells. The class given is cell-based. The settings on record: Table 2, total cell count in infected plates.
Data set [1] has as its target SARS-CoV-2 main protease (Mpro) (Severe acute respiratory syndrome coronavirus 2, UniProt P0DTD1). In words: biochemical. To be noted: read-out: Enzyme IC50.
Data set [2] in a line: Uninfected host cell cytotoxicity counter screen. The class given is cell-based. The settings on record: human. The procedure:
Uninfected host cell cytotoxicity counter screen: HeLa-ACE2 cells were maintained as described for the infection assay and seeded in the assay-ready plates at 400 cells/well. Plates were incubated for 24 hours at 37° C. 5% CO2. To assess cell viability, the Image-iT DEAD green reagent was used according to manufacturer instructions. Cells were fixed with 4% paraformaldehyde, and counterstained with DAPI. Fixed cells are imaged as described above.
Viral replication data analysis: Data from the primary screen and the host cell cytotoxicity screen are normalized to neutral (DMSO) […] inhibitor controls (2.5 μM Remdesivir for antiviral effect and 10 μM puromycin for infected host cell toxicity). For the uninfected host cell cytotoxicity counter-screen 40 μM puromycin is used as the positive control. Concentration response experiments will be tested in triplicate.
For orientation: The purpose of a counterscreen is to sort out artefacts and off-target activity.

Data set [3] has as its system SARS-CoV-2 (strain USA-WA1/2020). As to the kind of experiment: microbe, parasite or virus in culture. Format: cell-based.
Where [4] appears, read: Severe acute respiratory syndrome coronavirus 2, Table 2, SARS-CoV-2 infected HeLa-ACE2 cells, read-out: CoV-2 HeLa EC50.

pEC50, pIC50: −log10 of the molar value. Read-outs that look alike come from different tables or passages of the source.

Turning to `O=C(c1cncc(Cl)c1)N1CCN(C(c2ccccc2)c2cccnc2)CC1` (stereo not drawn) [MKP-1193, 1-(5-chloropyridine-3-carbonyl)-4-[phenyl(pyridin-3-yl)methyl]piperazine], the results for the pEC50 (in the data set on HeLa-ACE2 cells; in data set [3] (setting [4])) were under 5.02 and 6.09, respectively. For the same compound, in data set [1] (Table 2), the pIC50 is 6.35. This compound also came in with a CC50 at 24 h in data set [2] of over 39.8 µM.
With `COc1cncc(C(=O)N2CCN(C(c3ccccc3)c3cccnc3)CC2)c1` (stereo not drawn) [MKP-1194, 1-(5-methoxypyridine-3-carbonyl)-4-[phenyl(pyridin-3-yl)methyl]piperazine], the pEC50 in the data set on HeLa-ACE2 cells is under 5.02; in data set [3] (setting [4]), 5.67. Further, the pIC50 in data set [1] (Table 2) was 5.96. The CC50 at 24 h in data set [2] is over 39.8 µM.
For `O=C(c1cncc(C(F)(F)F)c1)N1CCN(C(c2ccccc2)c2cccnc2)CC1` (stereo not drawn) [MKP-1195, 1-[phenyl(pyridin-3-yl)methyl]-4-[5-(trifluoromethyl)pyridine-3-carbonyl]piperazine] the same measures were under 5.02, 5.06, 5.57 and over 39.8 µM.
Take `COc1cccc(C(c2ccccc2)N2CCN(C(=O)c3cncc(F)c3)CC2)c1` (stereo not drawn) [MKP-1204, 1-(5-fluoropyridine-3-carbonyl)-4-[(3-methoxyphenyl)(phenyl)methyl] piperazine]: the pEC50 in the data set on HeLa-ACE2 cells was under 5.02; in data set [3] (setting [4]), 5.18. Besides, the pIC50 in data set [1] (Table 2) was 5.64. In data set [2], this compound registered a CC50 at 24 h of over 39.8 µM.
In the case of `O=C(c1cccnc1)N1CCN(C(c2ccccc2)c2ccsc2)CC1` (stereo not drawn) [MKP-1215, 1-[phenyl(thiophen-3-yl)methyl]-4-(pyridine-3-carbonyl)piperazine], the pEC50 in the data set with HeLa-ACE2 cells is under 5.02; in data set [3] (setting [4]), 5.55. Further, the pIC50 in data set [1] (Table 2) is 5.35. The compound also yielded a CC50 at 24 h in data set [2] of over 39.8 µM.
As for `O=C(c1cncc(Br)c1)N1CCN(C(c2ccccc2)c2ccsc2)CC1` (stereo not drawn) [MKP-1220, 1-(5-bromopyridine-3-carbonyl)-4-[phenyl(thiophen-3-yl)methyl]piperazine], the pEC50 was 5.58 in the data set with HeLa-ACE2 cells and 6.05 in data set [3] (setting [4]). In addition, the pIC50 in data set [1] (Table 2) was 6.60. In data set [2], the CC50 at 24 h is over 39.8 µM.
For the compound `O=C(c1cncc(Cl)c1)N1CCN(C(c2ccccc2)c2ccsc2)CC1` (stereo not drawn) [MKP-1221, 1-(5-chloropyridine-3-carbonyl)-4-[phenyl(thiophen-3-yl)methyl]piperazine], the pEC50 with HeLa-ACE2 cells was 6.25; in data set [3] (setting [4]) it was 6.08. Also, in data set [1] (Table 2), the pIC50 was 6.48. Further, in data set [2], the CC50 at 24 h is over 39.8 µM.
For `Cc1cncc(C(=O)N2CCN(C(c3ccccc3)c3ccsc3)CC2)c1` (stereo not drawn) [MKP-1222, 1-(5-methylpyridine-3-carbonyl)-4-[phenyl(thiophen-3-yl)methyl]piperazine] the same measures were 5.91, 5.85, 6.43 and over 39.8 µM.
Turning to `O=C(c1cncc(Cl)c1)N1CCN(C(c2ccccc2)c2cccc(F)c2)CC1` (stereo not drawn) [MKP-1227, 1-(5-chloropyridine-3-carbonyl)-4-[(3-fluorophenyl)(phenyl)methyl]piperazine], the pEC50 with HeLa-ACE2 cells is 6.21; in data set [3] (setting [4]), 6.34. In addition, the pIC50 in data set [1] (Table 2) is 7.06. The compound also showed a CC50 at 24 h in data set [2] of over 39.8 µM.
For `N#Cc1cncc(C(=O)N2CCN(C(c3ccccc3)c3ccccc3)CC2)c1` [MKP-1230, 5-[4-(diphenylmethyl)piperazine-1-carbonyl]pyridine-3-carbonitrile] the same measures were under 5.02, 5.55, 5.89 and over 39.8 µM.
Consider `Cc1cncc(C(=O)N2CCN(C(c3ccccc3)c3cccc(C(F)(F)F)c3)CC2)c1` (stereo not drawn) [MKP-1276, 1-(5-methylpyridine-3-carbonyl)-4-{phenyl[3-(trifluoromethyl)phenyl]methyl} piperazine], for which the figures for the pEC50 (with HeLa-ACE2 cells; in data set [3] (setting [4])) were 5.47 and 6.20, respectively. In addition, the pIC50 in data set [1] (Table 2) was 6.68. The CC50 at 24 h in data set [2] is 22.9 µM.
In the case of `Cc1cncc(C(=O)N2CCN(C(c3ccc(F)cc3)c3ccccc3F)CC2)c1` (stereo not drawn) [MKP-1277, 1-[(2-fluorophenyl)(4-fluorophenyl)methyl]-4-(5-methylpyridine-3-carbonyl)piperazine], the pEC50 in the data set on HeLa-ACE2 cells was 5.57; in data set [3] (setting [4]), 6.13. In addition, in data set [1] (Table 2), the pIC50 is 6.82. In data set [2], this compound registered a CC50 at 24 h of over 39.8 µM.
The like results for `Cc1cncc(C(=O)N2CCN(C(c3ccccc3)c3cc(F)cc(F)c3)CC2)c1` (stereo not drawn) [MKP-1280, 1-[(3,5-difluorophenyl)(phenyl)methyl]-4-(5-methylpyridine-3-carbonyl)piperazine] were, in that order, 6.58, 6.80, 7.21 and over 39.8 µM.
For the compound `Cc1cncc(C(=O)N2CCN(C(c3ccccc3)c3ccccc3F)CC2)c1` (stereo not drawn) [MKP-1287, 1-[(2-fluorophenyl)(phenyl)methyl]-4-(5-methylpyridine-3-carbonyl)piperazine], the values for the pEC50 (with HeLa-ACE2 cells; in data set [3] (setting [4])) were 6.09 and 6.22, respectively. In addition, the pIC50 in data set [1] (Table 2) is 7.18. Also, the CC50 at 24 h in data set [2] was over 39.8 µM.
As for `Cc1cncc(C(=O)N2CCN(C(c3cccnc3)c3cccc(F)c3)CC2)c1` (stereo not drawn) [MKP-1290, 1-[(3-fluorophenyl)(pyridin-3-yl)methyl]-4-(5-methylpyridine-3-carbonyl)piperazine], the pEC50 was 6.73 in the data set with HeLa-ACE2 cells; 6.98 in data set [3] (Severe acute respiratory syndrome coronavirus 2, HeLa, Table 3, read-out: CoV-2 HeLa EC50); 6.98 in data set [3] (setting [4]). The pIC50 in data set [1] (Table 2) was 7.02; in data set [1] (Table 3, select example compounds against mpro), 7.02. The same compound returned a CC50 at 24 h in data set [2] of over 39.8 µM.
As for `O=C(c1cc[nH]c(=O)c1)N1CCN(C(c2ccccc2)c2ccccc2)CC1` [NZ-769, 4-[4-(diphenylmethyl)piperazine-1-carbonyl]-1,2-dihydropyridin-2-one], the pEC50 in the data set on HeLa-ACE2 cells is under 5.02; in data set [3] (setting [4]), 5.09. Moreover, the negative logarithm of the IC50 (pIC50) in data set [1] (Table 2) was 4.95. In addition, in data set [2], the CC50 at 24 h is over 39.8 µM.
With `O=C(c1cncc(Br)c1)N1CCC(C(O)(c2ccccc2)c2ccccc2)CC1` [NZ-770, [1-(5-bromopyridine-3-carbonyl)piperidin-4-yl]diphenylmethanol], the pEC50 in the data set with HeLa-ACE2 cells is under 5.02; in data set [3] (setting [4]), 6.29. For the same compound, in data set [1] (Table 2), the negative-log IC50 (pIC50) was 6.42. In data set [2], the CC50 at 24 h was over 39.8 µM.
For `O=C(c1cccnc1)N1CCC(=C(c2ccccc2)c2ccccc2)CC1` [NZ-772, 3-[4-(diphenylmethylidene)piperidine-1-carbonyl]pyridine] the same measures were under 5.02, 6.00, 6.49 and over 39.8 µM.
The like results for `O=C(c1cncc(F)c1)N1CCC(C(O)(c2ccccc2)c2ccccc2)CC1` [NZ-778, [1-(5-fluoropyridine-3-carbonyl)piperidin-4-yl]diphenylmethanol] were, in that order, under 5.02, 5.44, 5.77 and over 39.8 µM.
For `O=C(c1cncc(Cl)c1)N1CCC(C(O)(c2ccccc2)c2ccccc2)CC1` [NZ-779, [1-(5-chloropyridine-3-carbonyl)piperidin-4-yl]diphenylmethanol] the same measures were under 5.02, 6.15, 6.43 and over 39.8 µM.
Take `O=C(c1cncc(F)c1)N1CCC(=C(c2ccccc2)c2ccccc2)CC1` [NZ-780, 3-[4-(diphenylmethylidene)piperidine-1-carbonyl]-5-fluoropyridine]: the pEC50 was under 5.02 with HeLa-ACE2 cells and 5.86 in data set [3] (setting [4]). For the same compound, in data set [1] (Table 2), the pIC50 was 6.51. Further, the CC50 at 24 h in data set [2] came out at 30.1 µM.
For the compound `O=C(c1cncc(Cl)c1)N1CCC(=C(c2ccccc2)c2ccccc2)CC1` [NZ-781, 3-chloro-5-[4-(diphenylmethylidene)piperidine-1-carbonyl]pyridine], the pEC50 in the data set on HeLa-ACE2 cells was under 5.02; in data set [3] (setting [4]) it was 5.98. Also, the pIC50 in data set [1] (Table 2) was 6.96. The compound also showed a CC50 at 24 h in data set [2] of 35.8 µM.
The like results for `Cc1cncc(C(=O)N2CCN(C3c4ccccc4C=Cc4ccccc43)CC2)c1` [NZ-784, (5-methyl-3-pyridyl)-[4-(2-tricyclo[9.4.0.03,8]pentadeca-1(11),3(8),4,6,9,12,14-heptaenyl)piperazin-1-yl]methanone] were, in that order, under 5.02, 6.44, 7.06 and 39.4 µM.
As to `Cc1cc(C(=O)N2CCC(C(O)(c3ccccc3)c3ccccc3)CC2)c[n+]([O-])c1` [NZ-792, [4-[hydroxy(diphenyl)methyl]-1-piperidyl]-(5-methyl-1-oxo-3-pyridyl)methanone], the negative-log EC50 (pEC50) was under 5.02 in the data set with HeLa-ACE2 cells and under 5.02 in data set [3] (Severe acute respiratory syndrome coronavirus 2, HeLa-ACE2, read-out: CoV-2 HeLa EC50, Table 2, SARS-CoV-2 infected HeLa-ACE2 cells). In addition, in data set [1] (Table 2), the pIC50 was under 5.00. This compound yielded a CC50 at 24 h in data set [2] of over 39.8 µM.
With `Cc1cncc(C(=O)N2CCN(C(c3ccccc3)c3ccc(S(C)(=O)=O)cc3)CC2)c1` (stereo not drawn) [NZ-799, 1-[(4-methanesulfonylphenyl)(phenyl)methyl]-4-(5-methylpyridine-3-carbonyl)piperazine], the pEC50 in the data set with HeLa-ACE2 cells was 5.18; in data set [3] (setting [4]), 5.59. Also, the pIC50 in data set [1] (Table 2) was 5.91. The CC50 at 24 h in data set [2] was over 39.8 µM.
